Experimental data published in patent US5866597A, “Use of triazine compounds for the treatment of memory and learning disorders” (Glaxo Wellcome Inc., priority 1993, dated 1999).
Like-named read-outs stand apart in the source and are kept apart here.

Columns and labels:
[1] = isethionate salt, cited from earlier work
[2] = system: scopolamine-induced deficit in rats; assay: Light-dark box memory test in rats, scopolamine-induced deficit, single dose pre-training (Tables 3 and 4); assay type: in vivo, Male Wistar rats; conditions: for Mean latency Day 1 / Mean latency Day 2: ± SEM; for Effect on expected decrease in latency on retest: scopolamine 0.1 mg/kg
Protocol: (§1) Male Wistar rats obtained from Charles River were used. They were housed under controlled conditions (temperature 21±2 deg. C., humidity approx. 50%, 12 hour light/dark cycle, food and water ad lib) for one week before use. On the day before test the rats were permanently housed in groups of six. Food and water were supplied ad lib. On the test day, animals were weighed and then dosed either 30 minutes before test (midazolam), one hour before test (compound A) or immediately after test.
(§2) All drugs were dissolved or suspended in 0.25% (w/v) aqueous celacol, and administered orally (by gavage), i.p. or s.c. The dose volume was 5 ml/kg for all routes.
(§3) An identical apparatus to that described in Example 1 was used, except that the smaller box measured 370 mm×260 mm×190 mm.
(§4) This consisted of training as described for mice under section (d) of Example 1.
(§5) Test drugs or control fluids were given before or immediately after the training session.
(§6) This was as described under section (e) of Example 1.

[3] = system: scopolamine-induced deficit in mice; assay: Modified light-dark box memory test in mice, scopolamine-induced deficit, drug given pre-training (Table 1); assay type: in vivo, Male albino CD-1 mice; conditions: for Mean latency Day 1 / Mean latency Day 2: ± SEM
Protocol: (§7) Male albino CD-1 mice obtained from Charles River were used. They were housed under controlled conditions (temperature 21±2 deg. C., humidity approx. 50%, 12 hour light/dark cycle, food and water ad lib) for one week before use. On the day before test, the mice were housed in groups of six in polythene boxes in the laboratory and marked for identification. Food and water were supplied ad lib. On the test day, animals were weighed and then dosed either 30 minutes before test (piracetam, ondansetron) one hour before test (compound A) or immediately after test.
All drugs were dissolved or suspended in 0.25% (w/v) aqueous celacol, and administered orally (by gavage), i.p. or s.c. The dose volume was 10 ml/kg for all routes.
(§8) The apparatus consisted of two boxes with an opening 90 mm×60 mm at floor level between them. A plastic door was used to close the opening when required. The smaller box (290 mm×120 mm×120 mm high) was made of opaque plastics, open at the top to allow illumination by normal laboratory lighting. The larger box (305 mm square×280 mm high) was enclosed apart from the single opening.
(§9) This consisted of training, with retest 24 hours later. During training, animals were placed individually in the open box facing away from the end with the opening. After a period of exploration, they usually entered the dark box and the latency to entry in seconds was noted. The door to the dark box was closed, and after 30 seconds had elapsed, the animal was removed gently and returned to the holding box. Twenty-four hours later, an identical procedure was used, except that the session ended as soon as the animal had entered the dark box. The latency was again noted. During the interval, the animals were not handled, and were disturbed as little as possible. Each animal was used once only.
as §5
Group comparisons were made between latencies to enter the dark compartment on the first and second occasions. For both training and retest occasions, comparisons were made between vehicle and treatment groups. […] The difference between latencies on the two occasions is presented as % decrease on Day 2 compared with Day 1.
(§10) The mean latency to enter the dark box±standard error of the mean was calculated from a group of 12 animals. For a given treatment, figures in the columns labelled `Day 1` and `Day 2` show the mean latencies taken from the same group of animals. The difference between data obtained on the two days is illustrated by showing the % decrease, and the data compared using the Mann-Whitney U-test; NS indicates a p value>0.1.

scopolamine effect = conditions: cited from earlier work; for Reversal of the scopolamine effect: screen for nootropic compounds
[4] = system: scopolamine-induced deficit in mice; assay: Modified light-dark box memory test in mice, scopolamine-induced deficit, drug given immediately post-training (Table 2); assay type: in vivo, Male albino CD-1 mice; conditions: for Mean latency Day 1 / Mean latency Day 2: ± SEM
Protocol: as §7
[…] The dose volume was 10 ml/kg for all routes.
as §8, §9, §5
Group comparisons were made between latencies to enter the dark compartment on the first and second occasions. For both training and retest occasions, comparisons were made between vehicle and treatment groups. The distribution of latencies was skewed on both learning and retest trials (data not shown), so the non-parametric Mann-Whitney U-test was used. The difference between latencies on the two occasions is presented as % decrease on Day 2 compared with Day 1.
as §10

[5] = system: scopolamine-induced deficit in rats; assay: Light-dark box memory test in rats, sub-acute dosing: pre-training, pre-training and pre-retest, or four pre-treatments and before training and retest (Table 5); assay type: in vivo, Male Wistar rats
Protocol: as §1
In the sub-acute dosing regimen (see `Procedure`) the rats, housed as above, received six doses of drug or vehicle by the oral route, each 24 hours apart.
as §2, §3, §4
The procedure was identical with that described above, except that seven groups of rats received compound A or control pre-treatment as 6 oral doses each 24 hours apart, as follows.
Training took place 1 hour after the fifth dose i.e. on day 5. […] The usual retest was performed 24 hours later (on day 6), one hour after the sixth oral treatment.
as §6
The mean latency to enter the dark box±standard error of the mean was calculated from a group of 24 animals (controls in first block) or 12 animals (all other treatments). For a given treatment, figures in the columns labelled `Day 5` and `Day 6` show the mean latencies taken from the same group of animals. The difference between data obtained on the two days is illustrated by showing the % decrease, and the data compared using the Mann-Whitney U-test.

[6] = system: scopolamine-induced pupillary dilatation in rats; assay: Pupil diameter measurement in rats (Table 6); assay type: in vivo, Male Wistar rats
Protocol: (§11) 15 minutes before observation. Under these conditions, which were identical to those used in the learning experiments described in Example 2, changes in salivation and pupil diameter were measured. Salivation was measured by placing a piece of folded filter paper in the rat's mouth and measuring the diameter of the blot in mm after 1 minute. Pupil diameter was measured using a magnifying glass and graticule under normal lighting conditions. For both measures, comparisons were made between control and drug-treated groups using a Student's T-test on independent samples.
(§12) Groups of 6 animals were used.

[7] = system: scopolamine-induced dry mouth in rats; assay: Salivation measurement in rats (Table 6); assay type: in vivo, Male Wistar rats; conditions: scopolamine, vehicle-pretreated rats; p<0.01
Protocol: as §11, §12

[8] = saline s.c. + midazolam 0.5 mg/kg i.p.
[9] = scopolamine 0.1 mg/kg s.c. + midazolam 0.5 mg/kg i.p.
[10] = scopolamine 1 mg/kg s.c. + ondansetron 0.01 ug/kg i.p.
[11] = scopolamine 1 mg/kg s.c. + ondansetron 1.0 ug/kg i.p.
[12] = scopolamine 1 mg/kg s.c. + ondansetron 100 ug/kg i.p.
[13] = saline s.c. + piracetam 2000 mg/kg i.p.
[14] = scopolamine 1 mg/kg s.c. + piracetam 2000 mg/kg i.p.
[15] = saline s.c. + piracetam 2000 mg/kg i.p. post-training
[16] = scopolamine 1 mg/kg s.c. + piracetam 2000 mg/kg i.p. post-training
[17] = scopolamine 1 mg/kg s.c. + celacol
[18] = scopolamine 1 mg/kg s.c. + saline (piracetam experiment)
[19] = scopolamine 1 mg/kg s.c. + saline
[20] = scopolamine 0.1 mg/kg s.c. + celacol (Table 3)
[21] = scopolamine 0.1 mg/kg s.c. + saline (Table 4)
[22] = scopolamine 0.1 mg/kg s.c. + celacol days 1-6, ± SEM

Nc1nnc(-c2cccc(Cl)c2Cl)c(N)n1 [3,5-diamino-6-(2,3-dichlorophenyl)-1,2,4-triazine isethionate]
Solubility [1]: good solubility | Solubility ([1]; listed as The salt with isethionic acid): particularly good solubility

Cc1ncc2n1-c1ccc(Cl)cc1C(c1ccccc1F)=NC2 [Midazolam]
Reversal of scopolamine-induced deficit ([2]; midazolam 0.5 mg/kg i.p.): did not reverse the scopolamine-induced deficit | Difference between days, % Decrease ([2]; saline s.c. + midazolam 0.5 mg/kg i.p., p (0.09)): 29% | Mean latency Day 1 [2, 8]: 39.9 ± 4.9 s | Mean latency Day 2 [2, 8]: 28.2 ± 2.7 s | Difference between days, % Decrease ([2]; scopolamine 0.1 mg/kg s.c. + midazolam 0.5 mg/kg i.p., p NS): 9% | Mean latency Day 1 [2, 9]: 37.0 ± 4.0 s | Mean latency Day 2 [2, 9]: 33.6 ± 3.4 s

Cc1nccn1CC1CCc2c(c3ccccc3n2C)C1=O (stereo not shown) [Ondansetron, 1,2,3,9-tetrahydro-9-methyl-3-[(2-methyl-1H-imidazol-1-yl)methyl]-4H-carbazol-4-one]
Difference between days, % Decrease ([3]; scopolamine 1 mg/kg s.c. + ondansetron 0.01 ug/kg i.p., p NS): -28% | Mean latency Day 1 [3, 10]: 15.6 ± 1.8 s | Mean latency Day 2 [3, 10]: 20.0 ± 1.9 s | Difference between days, % Decrease ([3]; scopolamine 1 mg/kg s.c. + ondansetron 1.0 ug/kg i.p., p NS): -5% | Mean latency Day 1 [3, 11]: 14.3 ± 1.4 s | Mean latency Day 2 [3, 11]: 14.9 ± 1.2 s | Difference between days, % Decrease ([3]; scopolamine 1 mg/kg s.c. + ondansetron 100 ug/kg i.p., p <0.05): 28% | Mean latency Day 1 [3, 12]: 16.3 ± 1.9 s | Mean latency Day 2 [3, 12]: 11.8 ± 1.5 s | Reversal of the scopolamine effect (scopolamine effect): positive results

NC(=O)CN1CCCC1=O [Piracetam]
Day 2 latency versus scopolamine-treated control animals ([3]; piracetam 2000 mg/kg i.p. + scopolamine, pre-training, p<0.05): significantly different | Difference between days, % Decrease ([3]; saline s.c. + piracetam 2000 mg/kg i.p., p <0.01): 44% | Mean latency Day 1 [3, 13]: 21.4 ± 4.7 s | Mean latency Day 2 [3, 13]: 12.1 ± 1.2 s | Difference between days, % Decrease ([3]; scopolamine 1 mg/kg s.c. + piracetam 2000 mg/kg i.p., p NS*): 27% | Mean latency Day 1 [3, 14]: 19.1 ± 2.4 s | Mean latency Day 2 [3, 14]: 13.9 ± 1.8 s | Difference between days, % Decrease ([4]; saline s.c. + piracetam 2000 mg/kg i.p. post-training, p <0.05): 28% | Mean latency Day 1 [4, 15]: 18.8 ± 2.0 s | Mean latency Day 2 [4, 15]: 13.5 ± 1.7 s | Difference between days, % Decrease ([4]; scopolamine 1 mg/kg s.c. + piracetam 2000 mg/kg i.p. post-training, p NS*): 6% | Mean latency Day 1 [4, 16]: 19.2 ± 1.8 s | Mean latency Day 2 [4, 16]: 18.0 ± 1.8 s | Reversal of the scopolamine effect (scopolamine effect): positive results

CN1[C@@H]2C[C@@H](OC(=O)[C@H](CO)c3ccccc3)C[C@H]1[C@@H]1O[C@@H]12 [Scopolamine]
Difference between days, % Decrease ([3]; scopolamine 1 mg/kg s.c. + celacol, p NS): -10% | Mean latency Day 1 [3, 17]: 18.8 ± 1.8 s | Mean latency Day 2 [3, 17]: 20.7 ± 2.3 s | Difference between days, % Decrease ([3]; scopolamine 1 mg/kg s.c. + saline (ondansetron experiment), p NS): -2% | Mean latency Day 1 ([3]; scopolamine 1 mg/kg s.c. + saline (ondansetron experiment)): 16.5 ± 1.3 s | Difference between days, % Decrease ([3]; scopolamine 1 mg/kg s.c. + saline (piracetam experiment), p NS): -27% | Mean latency Day 1 [3, 18]: 18.9 ± 1.4 s | Mean latency Day 2 [3, 18]: 24.0 ± 2.5 s | Effect on expected decrease in latency on retest ([3]; scopolamine 1 mg/kg, vehicle-treated mice): abolished this effect | Difference between days, % Decrease ([4]; scopolamine 1 mg/kg s.c. + saline, p (0.07, up)): -36% | Mean latency Day 1 [4, 19]: 19.5 ± 2.3 s | Mean latency Day 2 [4, 19]: 26.5 ± 2.7 s | Difference between days, % Decrease ([2]; scopolamine 0.1 mg/kg s.c. + celacol (Table 3), p NS): 0% | Mean latency Day 1 [2, 20]: 44.4 ± 4.3 s | Mean latency Day 2 [2, 20]: 44.5 ± 3.7 s | Difference between days, % Decrease ([2]; scopolamine 0.1 mg/kg s.c. + saline (Table 4), p NS): -16% | Mean latency Day 1 [2, 21]: 34.4 ± 5.2 s | Mean latency Day 2 [2, 21]: 39.8 ± 4.5 s | Effect on expected decrease in latency on retest ([2]; vehicle-treated rats (Table 3)): reversed this effect | Effect on expected decrease in latency on retest ([2]; vehicle-treated rats (Table 4)): prevented this effect | Diff. between days, % ([5]; scopolamine 0.1 mg/kg s.c. + celacol days 1-6, p NS): -3% | Mean latency Day 5 [5, 22]: 33.5 ± 2.2 s | Mean latency Day 6 [5, 22]: 34.4 ± 2.5 s | Effect on expected decrease in mean latency ([5]; scopolamine 0.1 mg/kg, vehicle-treated rats): reversed by scopolamine | Mean pupil diameter ([6]; celacol p.o. + scopolamine 0.1 mg/kg s.c., ± SEM): 22.8 ± 1.65 mm × 10 | Effect on pupil diameter ([6]; scopolamine, vehicle-pretreated rats, p<0.01): significantly increased pupil diameter | Effect on salivation [7]: reduced salivation | Effect on memory (scopolamine effect; given before or immediately after a learning trial): can abolish the memory
